ChEMBL document CHEMBL1156661, “Myrtucommulones F-I, phloroglucinols with thyrotropin-releasing hormone receptor-2 binding affinity from the seeds of Corymbia scabrida” (J Nat Prod, 2008)

Assay: Displacement of [H3]3-methylhistidylTRH from rat recombinant TRH2 receptor expressed in […] cells
Format: cell-based

Structure (SMILES)	IC50
CC(C)C(=O)c1c(O)c([C@H](C2=C(O)C(C)(C)C(=O)C(C)(C)C2=O)C(C)C)c(O)c([C@H](C2=C(O)C(C)(C)C(=O)C(C)(C)C2=O)C(C)C)c1O [MYRTUCOMMULONE A]	39 µM
CC(C)C(=O)c1c(O)c2c(c3c1O[C@@]1(O)[C@@H](C(O)C(C)(C)C(=O)C1(C)C)[C@@H]3C(C)C)OC1=C(C(=O)C(C)(C)C(=O)C1(C)C)[C@@H]2C(C)C (stereo partly specified) [MYRTUCOMMULONE D]	11 µM
CCCCCC(=O)c1c(O)c([C@H](C2=C(O)C(C)(C)C(=O)C(C)(C)C2=O)C(C)C)c(O)c([C@H](C2=C(O)C(C)(C)C(=O)C(C)(C)C2=O)C(C)C)c1O [MYRTUCOMMULONE F]	16 µM

Continued, values first:

IC50	Structure (SMILES)
24 µM	CCCCCC(=O)c1c(O)c2c(c3c1O[C@@]1(O)[C@@H](C(O)C(C)(C)C(=O)C1(C)C)[C@@H]3C(C)C)OC1=C(C(=O)C(C)(C)C(=O)C1(C)C)[C@@H]2C(C)C (stereo partly specified) [MYRTUCOMMULONE G]
31 µM	CCCCCC(=O)c1c(O)c([C@@H](CC(C)C)C2=C(O)C(C)(C)C(=O)C(C)(C)C2=O)c(O)c([C@H](C2=C(O)C(C)(C)C(=O)C(C)(C)C2=O)C(C)C)c1O [MYRTUCOMMULONE H]
16 µM	CCCCCC(=O)c1c(O)c2c(c3c1O[C@@]1(O)[C@@H](C(O)C(C)(C)C(=O)C1(C)C)[C@@H]3C(C)C)OC1=C(C(=O)C(C)(C)C(=O)C1(C)C)[C@@H]2CC(C)C (stereo partly specified) [MYRTUCOMMULONE I]
